Results: patent publication US11135163B2, “Peptide hydrogel properties and its applications” (Kansas State University Research Foundation, priority 2014, dated 2021)
Where two headings read alike, the source gives them in different places.

How the values were obtained:
[1] = Hydrogel formation and gelation time sweep of h9e with commercial mouse blood; settings: all concentrations except 1%
Experimental: About 150 μL of the appropriate wt % of peptide solution was added to 150 μL of commercial mouse blood in a small vial. The mixture was pipetted 5 times to ensure continuity and observed for visual hydrogel formation. Visual observation of hydrogel formation was recorded via a Nikon Coolpix L22 camera (FIG. 9).
Hydrogel gelation time sweep (instantaneous): A time sweep was conducted on the hydrogel and commercial mouse blood mixture. 150 μL of the appropriate wt % of peptide solution was added to 150 μL of commercial mouse blood in a small vial. The mixture was pipetted about 5 times to ensure continuity and added to the rheometer for evaluation. Both storage and loss moduli, G′ and G″ respectively, of the h9e/blood hydrogel were determined using a C-VOR 150 rheometer (Malvern Instruments, Malvern, Worcestershire, United Kingdom). A plate 20 mm in diameter was used with 1% strain and frequency of 1 Hz at a 37° C. temperature for 30 minutes.
Hydrogel stability gelation time sweep (24 hours post gelatinization): A time sweep was conducted on the hydrogel and commercial mouse blood mixture. 24 hours post gelation. […] Both storage and loss moduli, G′ and G″ respectively, of the h9e/blood hydrogel was determined using a C-VOR 150 rheometer (Malvern Instruments, Malvern, Worcestershire, United Kingdom). […]

[2] = h9e-2i medium hydrogel rheology and stability; assay type: physicochemical
Experimental: Two different types of stem cell mediums were selected for this test. One is a low glucose DMEM medium with 2% (v/v) Fetal Bovine Serum (FBS) for Mesenchymal Stromal Cell (MSC medium). The other one is a N2B27 supplemented serum-free 2i medium with 0.5% (v/v) Bovine Serum Albumin (BSA) for rat Embryonic Stem Cell (ESC, 2i medium). The hydrogel formation process was monitored under a time sweep rheological test for 1 hour. The special shear-thinning and self-healing property of h9e peptide hydrogel was also tested. […] In addition, the stability of hydrogel as well as the peptide solution before the hydrogel formation was also tested.
The h9e peptide was synthesized according to the method mentioned above. Lyophilized peptide was added to 100 mM sodium bicarbonate and completely dissolved by magnetic stirring for 3 hours with a final peptide concentration of 10 mM. For hydrogelation, peptide solution was added into MSC medium or 2i medium and the mixture was hand-shaken for about 10 seconds or gently pipette mixed 3 times. The final peptide concentrations were 1, 2, and 3 mM.
The storage and loss moduli (G′ and G″, respectively) of h9e hydrogels were determined on a C-VOR 150 rheometer system (Malvern instruments, Malvern, Worcestershire WR141XZ, United Kingdom) with a 20-mm diameter parallel plate geometry and 500 μm gap size at 37° C. The methods for hydrogel formation test and shear-thinning and self-healing test were the same as the methods of cancer cell medium mentioned above. After 24 hours of hydrogel formation, 2 mM peptide hydrogel was diluted 20 fold by adding cell culture medium and thorough mixing by pipette. The diluted solution was transferred to rheometer system and tested under 1 Hz frequency and 1% shear strain at 4° C. for 1 hour.
The stability of h9e-2i medium hydrogel was tested. A plastic tray was placed on the bottom of the well plate. Next, 1 wt % h9e solution was mixed with 2i medium at 1:1 (v:v) ratio in a centrifuge tube and then transferred into the well plate. There was 500 μl peptide hydrogel for each well. The well plate was then placed in an incubator for 1 hour. After hydrogel was stable, another 500 μl of 2i medium was slowly added on the top of hydrogel. The top medium was replaced every other day. For mechanical testing, the top 2i medium was removed and hydrogel was transferred to a dynamic rheometer using the tray. The stability of the peptide solution was also tested using 1 wt % peptide solution stored in 4° C. refrigerator for up to 24 days. Part of the peptide solution was taken out and mixed with 2i medium with 1:1 (v:v) ratio on days 1, 6, 18 and 24. The hydrogel formation process was monitored under the single frequency (1 Hz) rheological test with 1% shear strain for 1 hour.

[3] = Rheology of h9e/BSA hydrogel formation (storage modulus G′); assay type: physicochemical; settings: for G′ after 2 hours of testing: 3 mM h9e
Experimental: For albumin triggered hydrogel formation, 10 mM (1.74 wt %) peptide was first dissolved in 100 mM NaHCO3 solution. BSA and HSA were dissolved in water with 5 wt % concentration. The peptide solution and albumin solution were then mixed at different ratios for final mixtures of 1, 2, 3 mM h9e peptide with albumin from 0.1 to 5 wt %.
The storage (G′) and loss (G″) moduli of h9e hydrogels with different peptide/albumin ratios were measured on a rheometer system C-VOR 150 (Malvern instruments, Malvern, Worcestershire WR141XZ, United Kingdom) with a 20 mm diameter parallel plate test system. All rheological tests were carried out at 37° C. […]

## H-FLIVIGSIIGPGGDGPGGD-NH2 [h9e, FLIVIGSIIGPGGDGPGGD]
[1]
  viscosity, strength and stability 24 hours post gelation versus instantaneous: increased
[2]
  stability of h9e solution: exceed 2 months
[2]; 1 mM h9e-2i hydrogel
  G′: about 100 Pa
[2]; 2 mM h9e-2i hydrogel
  G′ after shearing into liquid state: < 0.2 Pa
  stable G′: 600 Pa
[2]; 2 mM h9e-2i hydrogel, within a few minutes of recovery test
  mechanical strength restored: 100%
[2]; 3 mM h9e-2i hydrogel
  stable G′: 600 Pa
[2]; 1 wt % h9e solution mixed 1:1 with 2i medium
  G′ of h9e-2i hydrogel during 7 days (stability): 130-160 Pa
[2]; stored at 4° C. for 24 days, then mixed with 2i medium
  stability of h9e solution: could still form a hydrogel
[3]; 1 mM peptide with 1 wt % BSA, 2 hour test
  hydrogel formation: performed like a Newtonian liquid
[3]; 3 mM h9e peptide solution mixed with 5% BSA, 37° C.
  stable G′: around 200 Pa
[3]; 3 mM h9e solution without BSA, 30 min test
  behaviour of peptide solution alone: performed as Newtonian liquid
[3]; 0.1 wt % BSA
  G′ after 2 hours of testing: about 110 Pa
[3]; 0.5 wt % BSA
  G′ after 2 hours of testing: over 900 Pa
[3]; 1 wt % BSA
  G′ after 2 hours of testing: 680 Pa
[3]; 5 wt % BSA
  G′ after 2 hours of testing: 200 Pa
[3]; 0.5% h9e peptide and 0.5% BSA, incubated at 37° C. for 30 min
  gel strength: about 450 Pa
